# Reference: patent publication US4228292A, “N-Substituted benzothiazolines and benzoxazolines and their use as herbicides and plant growth regulants” (Monsanto Company, priority 1978, dated 1980)
# Key:
# Assay type in all cases: in vivo
# [1] = tested on: Panicum Spp; experiment: pre-emergent herbicidal test; settings: S
# Experimental: (§1) The pre-emergent test was conducted as follows:
# (§2) A good grade of top soil was placed in aluminum pans and compactd to a depth of 0.95 to 1.27 cm. from the top of the pan. On the top of the soil was placed a predetermined number of seeds or vegetative propagules of various plant species. The soil required to level fill the pans after seeding or adding vegetative propagules was weighed into a pan. A known amount of the herbicidal active ingredient applied in a solvent or as a wettable powder and the soil were thoroughly mixed, and used as a cover layer for prepared pans. After treatment the pans were moved into a greenhouse bench where they were watered from below as needed to give adequate moisture for germination and growth.
# (§3) A herbicidal rating code was used to signify the extent of phytotoxicity of each species. The ratings are defined as follows: […]
# [2] = tested on: Hemp Sesbania; experiment: pre-emergent herbicidal test; settings: R
# Experimental: as §1, §2, §3
# [3] = tested on: Sugar Beet; experiment: pre-emergent herbicidal test; settings: M
# Experimental: as §1, §2, §3
# [4] = tested on: Crabgrass; experiment: pre-emergent herbicidal test; settings: T
# Experimental: as §1, §2, §3
# [5] = tested on: Sorghum; experiment: pre-emergent herbicidal test; settings: P
# Experimental: as §1, §2, §3
# [6] = tested on: Wild Buckwheat; experiment: pre-emergent herbicidal test; settings: Q
# Experimental: as §1, §2, §3
# [7] = tested on: Rice; experiment: pre-emergent herbicidal test; settings: O
# Experimental: as §1, §2, §3
# [8] = tested on: Wheat; experiment: pre-emergent herbicidal test; settings: N
# Experimental: as §1, §2, §3
# [9] = tested on: Soybean; experiment: pre-emergent herbicidal test; settings: L
# Experimental: as §1, §2, §3
# [10] = tested on: Panicum Spp; experiment: post-emergent herbicidal test; settings: S
# Experimental: (§4) The post-emergent tests were conducted as follows:
# (§5) The herbicidal active ingredients are applied in spray form to two or three-week old specimens of various plant species. The spray, a solution or wettable powder suspension containing the appropriate rate of herbicidal active ingredient to give the desired test rate and a surfactant, is applied to the plants. The treated plants are placed in a greenhouse and approximately two or four weeks later the effects are observed and recorded. The results are shown in Tables IX and X in which the post-emergent herbicidal rating code is as follows: […]
# [11] = tested on: Hemp Sesbania; experiment: post-emergent herbicidal test; settings: R
# Experimental: as §4, §5
# [12] = tested on: Sugar Beet; experiment: post-emergent herbicidal test; settings: M
# Experimental: as §4, §5
# [13] = tested on: Crabgrass; experiment: post-emergent herbicidal test; settings: T
# Experimental: as §4, §5
# [14] = tested on: Sorghum; experiment: post-emergent herbicidal test; settings: P
# Experimental: as §4, §5
# [15] = tested on: Wild Buckwheat; experiment: post-emergent herbicidal test; settings: Q
# Experimental: as §4, §5
# [16] = tested on: Rice; experiment: post-emergent herbicidal test; settings: O
# Experimental: as §4, §5
# [17] = tested on: Wheat; experiment: post-emergent herbicidal test; settings: N
# Experimental: as §4, §5
# [18] = tested on: Soybean; experiment: post-emergent herbicidal test; settings: L
# Experimental: as §4, §5
# Further: ranges in brackets are in %.
smiles,measurement,setting,value
CCCOC(=N)Cn1c(=O)sc2ccccc21 [Compound 30],pre-emergent herbicidal rating,"[1]; 0.28 kg/h, 2 WAT",0 (0-24)
same,pre-emergent herbicidal rating,"[1]; 1.12 kg/h, 4 WAT",0 (0-24)
same,pre-emergent herbicidal rating,"[1]; 5.6 kg/h, 4 WAT",0 (0-24)
same,pre-emergent herbicidal rating,"[2]; 0.28 kg/h, 2 WAT",1 (25-49)
same,pre-emergent herbicidal rating,"[2]; 1.12 kg/h, 4 WAT",2 (50-74)
same,pre-emergent herbicidal rating,"[2]; 5.6 kg/h, 4 WAT",3 (75-100)
same,pre-emergent herbicidal rating,"[3]; 0.28 kg/h, 2 WAT",1 (25-49)
same,pre-emergent herbicidal rating,"[3]; 1.12 kg/h, 4 WAT",1 (25-49)
same,pre-emergent herbicidal rating,"[3]; 5.6 kg/h, 4 WAT",3 (75-100)
same,pre-emergent herbicidal rating,"[4]; 0.28 kg/h, 2 WAT",0 (0-24)
same,pre-emergent herbicidal rating,"[4]; 1.12 kg/h, 4 WAT",2 (50-74)
same,pre-emergent herbicidal rating,"[4]; 5.6 kg/h, 4 WAT",3 (75-100)
same,pre-emergent herbicidal rating,"[5]; 0.28 kg/h, 2 WAT",0 (0-24)
same,pre-emergent herbicidal rating,"[5]; 1.12 kg/h, 4 WAT",0 (0-24)
same,pre-emergent herbicidal rating,"[5]; 5.6 kg/h, 4 WAT",0 (0-24)
same,pre-emergent herbicidal rating,"[6]; 0.28 kg/h, 2 WAT",0 (0-24)
same,pre-emergent herbicidal rating,"[6]; 1.12 kg/h, 4 WAT",1 (25-49)
same,pre-emergent herbicidal rating,"[6]; 5.6 kg/h, 4 WAT",2 (50-74)
same,pre-emergent herbicidal rating,"[7]; 0.28 kg/h, 2 WAT",0 (0-24)
same,pre-emergent herbicidal rating,"[7]; 1.12 kg/h, 4 WAT",0 (0-24)
same,pre-emergent herbicidal rating,"[7]; 5.6 kg/h, 4 WAT",1 (25-49)
same,pre-emergent herbicidal rating,"[8]; 0.28 kg/h, 2 WAT",0 (0-24)
same,pre-emergent herbicidal rating,"[8]; 1.12 kg/h, 4 WAT",0 (0-24)
same,pre-emergent herbicidal rating,"[8]; 5.6 kg/h, 4 WAT",1 (25-49)
same,pre-emergent herbicidal rating,"[9]; 0.28 kg/h, 2 WAT",0 (0-24)
same,pre-emergent herbicidal rating,"[9]; 1.12 kg/h, 4 WAT",1 (25-49)
same,pre-emergent herbicidal rating,"[9]; 5.6 kg/h, 4 WAT",3 (75-100)
COC(=N)Cn1c(=O)sc2ccccc21 [Compound 37],post-emergent herbicidal rating,"[10]; 1.12 kg/h, 4 WAT",0 (0-24)
same,post-emergent herbicidal rating,"[10]; 5.6 kg/h, 4 WAT",0 (0-24)
same,post-emergent herbicidal rating,"[11]; 1.12 kg/h, 4 WAT",2 (50-74)
same,post-emergent herbicidal rating,"[11]; 5.6 kg/h, 4 WAT",3 (75-99)
same,post-emergent herbicidal rating,"[12]; 1.12 kg/h, 4 WAT",2 (50-74)
same,post-emergent herbicidal rating,"[12]; 5.6 kg/h, 4 WAT",2 (50-74)
same,post-emergent herbicidal rating,"[13]; 1.12 kg/h, 4 WAT",0 (0-24)
same,post-emergent herbicidal rating,"[13]; 5.6 kg/h, 4 WAT",1 (25-49)
same,post-emergent herbicidal rating,"[14]; 1.12 kg/h, 4 WAT",0 (0-24)
same,post-emergent herbicidal rating,"[14]; 5.6 kg/h, 4 WAT",0 (0-24)
same,post-emergent herbicidal rating,"[15]; 1.12 kg/h, 4 WAT",2 (50-74)
same,post-emergent herbicidal rating,"[15]; 5.6 kg/h, 4 WAT",4 (100)
same,post-emergent herbicidal rating,"[16]; 1.12 kg/h, 4 WAT",0 (0-24)
same,post-emergent herbicidal rating,"[16]; 5.6 kg/h, 4 WAT",0 (0-24)
same,post-emergent herbicidal rating,"[17]; 1.12 kg/h, 4 WAT",0 (0-24)
same,post-emergent herbicidal rating,"[17]; 5.6 kg/h, 4 WAT",0 (0-24)
same,post-emergent herbicidal rating,"[18]; 1.12 kg/h, 4 WAT",1 (25-49)
same,post-emergent herbicidal rating,"[18]; 5.6 kg/h, 4 WAT",2 (50-74)
COC(=N)Cn1c(=O)sc2ccccc21 [Compound 38],post-emergent herbicidal rating,"[10]; 0.28 kg/h, 2 WAT",0 (0-24)
same,post-emergent herbicidal rating,"[10]; 1.12 kg/h, 4 WAT",0 (0-24)
same,post-emergent herbicidal rating,"[11]; 0.28 kg/h, 2 WAT",0 (0-24)
same,post-emergent herbicidal rating,"[11]; 1.12 kg/h, 4 WAT",1 (25-49)
same,post-emergent herbicidal rating,"[12]; 0.28 kg/h, 2 WAT",1 (25-49)
same,post-emergent herbicidal rating,"[12]; 1.12 kg/h, 4 WAT",2 (50-74)
same,post-emergent herbicidal rating,"[13]; 0.28 kg/h, 2 WAT",0 (0-24)
same,post-emergent herbicidal rating,"[13]; 1.12 kg/h, 4 WAT",0 (0-24)
same,post-emergent herbicidal rating,"[14]; 0.28 kg/h, 2 WAT",0 (0-24)
same,post-emergent herbicidal rating,"[14]; 1.12 kg/h, 4 WAT",0 (0-24)
same,post-emergent herbicidal rating,"[15]; 0.28 kg/h, 2 WAT",0 (0-24)
same,post-emergent herbicidal rating,"[15]; 1.12 kg/h, 4 WAT",2 (50-74)
same,post-emergent herbicidal rating,"[16]; 0.28 kg/h, 2 WAT",0 (0-24)
same,post-emergent herbicidal rating,"[16]; 1.12 kg/h, 4 WAT",1 (25-49)
same,post-emergent herbicidal rating,"[17]; 0.28 kg/h, 2 WAT",0 (0-24)
same,post-emergent herbicidal rating,"[17]; 1.12 kg/h, 4 WAT",0 (0-24)
same,post-emergent herbicidal rating,"[18]; 0.28 kg/h, 2 WAT",1 (25-49)
same,post-emergent herbicidal rating,"[18]; 1.12 kg/h, 4 WAT",1 (25-49)
